Measurements taken from patent publication US9557338B2 (SIGNAL PHARMACEUTICALS, LLC, priority 2012, dated 2017).
pIC50: −log10 of the molar value. Where two headings read alike, the source gives them in different places.

Columns and labels:
Assay type in all cases: cell-based
[1] = system: Phospho-p70S6K (T389); test: MSD assay, phospho-p70S6K (T389) in cell lysates
Procedure: Determination of Phospho-p70S6K (T389) in Cell Lysates.
MSD® biomarker detection assays provide a rapid and convenient method for measuring the total and phosphorylated levels of protein targets within a single small-volume sample. In the assay, an antibody for a specific protein target is coated on one electrode (or spot) per well. The samples (cell lysates) are added to the well with a solution containing the detection antibody labeled with an electrochemiluminescent (ECL) compound, MSD SULFOTAG™ label, over the course of one or more incubation periods. The total protein present in the sample binds to the capture antibodies immobilized on the working electrode surface; recruitment of the labeled detection antibody by bound phospho-p70S6K completes the sandwich. MSD Read Buffer that provides the appropriate chemical environment for ECL is added and the plate is read using an MSD SECTOR™ Imager. Inside the SECTOR Imager, a voltage is applied to the plate electrodes which cause the labels bound to the electrode surface to emit light. The instrument measures intensity of the emitted light to afford a quantitative measure of the amount of phosphorylated protein present in the sample.
Cells were plated in 96-well flat bottom plates at the required density determined for each cell line and the cells were allowed to equilibrate at 37° C., 5% CO2 overnight. The following day, the cells were treated with Compound 1 over a range of concentrations for one hour in 5% CO2 at 37° C. After the incubation period, the culture medium was removed carefully with an aspirator. The plate was placed on ice and 50 μL of 1× Tris Lysis Buffer were added to each well. The plate was placed on a shaker at 4° C. for one hour to lyse the cells. At that point, the plate was either frozen at −80° C. for later analysis or immediately assayed for phosphoproteins as described below. To monitor interassay variability, Compound 1 was compared among all plates as a reference standard.
The assay plate was incubated with 150 μL of MSD Blocking Buffer for one hour with shaking at room temperature. The plates were washed 3 times with Tris Wash Buffer. Then 35 μL of cell lysate was added to the wells and incubated for one hour with shaking at room temperature. The solution was removed from the wells and the plate was washed 3 times with wash buffer. Twenty-five microliters of the appropriate antibody solution was then incubated for one hour with shaking at room temperature. The solution was removed from the wells and the plate was washed 3 times with wash buffer. Then 150 μL of 1×MSD Read Buffer T was added to each well. The plate was read on the SECTOR Imager plate reader.

[2] = system: GSK-3β; test: MSD assay, GSK-3β phosphorylation in cell lysates
[3] = system: Phospho-GSK3β(S9); test: Luminex multiplex assay, Phospho-GSK3β(S9); details: PC3 cell line; read-out: Luminex GSK-3β
In short: (§1)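 Cells (PC3; HCT-116, MDA-MB-231 and HT29 with 500 ng/mL recombinant human IGF-I for the final 10 min) treated with compound or rapamycin over a concentration range for 1 h at 37° C, 5% CO2. Lysates read by bead-based Luminex sandwich immunoassay, 3 h at room temperature, RPE anti-rabbit detection, quantified against phosphoprotein standard curves.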

[4] = system: Phospho-PRAS40(T246); test: Luminex multiplex assay, Phospho-PRAS40(T246); details: PC3 cell line; read-out: Luminex PRAS40
In short: as §1

[5] = system: p70S6K; test: Luminex multiplex assay, p70S6K phosphorylation in cell lysates; details: PC3 cell line; read-out: Luminex p70S6K
[6] = Homo sapiens, HCT-116, HCT116 cell line, IGF, read-out: MSD p70S6K (IGF)
[7] = Homo sapiens, U-87 MG, U87MG cell line, read-out: MSD p70S6K
[8] = Homo sapiens, HCT-116, HCT116 cell line, IGF, read-out: MSD GSK-3β (IGF)
[9] = Homo sapiens, U-87 MG, U87MG cell line, read-out: MSD GSK-3β
[10] = PC3 cell line, read-out: MSD p70S6K
[11] = PC3 cell line, read-out: MSD GSK-3β

SMILES	pIC50 [1, 10]	pIC50 [2, 11]	further results
CO[C@H]1CC[C@H](N2C(=O)CNc3ncc(-c4ccc(-c5nnc[nH]5)nc4C)nc32)CC1 [A-11, 1-((1r,4r)-4-methoxycyclohexyl)-7-(2-methyl-6-(4H-1,2,4-triazol-3-yl)pyridin-3-yl)-3,4-dihydropyrazino[2,3-b]pyrazin-2(1H)-one]	–	–	pIC50 ([1]; HCT116 cell line, IGF, read-out: MSD p70S6K (IGF)): 6.80; pIC50 ([1]; U87MG cell line, read-out: MSD p70S6K): 7.03; pIC50 ([2]; HCT116 cell line, IGF, read-out: MSD GSK-3β (IGF)): 6.69; pIC50 ([2]; U87MG cell line, read-out: MSD GSK-3β): 6.32
CCN1C(=O)CNc2ncc(-c3ccc(-c4nnc[nH]4)nc3C)nc21 [A-12, 1-ethyl-7-(2-methyl-6-(4H-1,2,4-triazol-3-yl)pyridin-3-yl)-3,4-dihydropyrazino[2,3-b]pyrazin-2(1H)-one]	–	–	pIC50 [1, 6]: 6.07; pIC50 [1, 7]: 6.60; pIC50 [2, 8]: < 5.70; pIC50 [2, 9]: < 5.70
Cc1nc(-c2nnc[nH]2)ccc1-c1cnc2c(n1)N(C(C)C)C(=O)CN2 [A-13, 1-isopropyl-7-(2-methyl-6-(4H-1,2,4-triazol-3-yl)pyridin-3-yl)-3,4-dihydropyrazino[2,3-b]pyrazin-2(1H)-one]	–	–	pIC50 [1, 6]: 6.03; pIC50 [1, 7]: 6.45; pIC50 [2, 8]: < 5.70; pIC50 [2, 9]: < 5.70
O=C1CNc2ncc(-c3cncnc3)nc2N1CCC1CCOCC1 [C-106]	–	–	pIC50 [3]: < 5.82; pIC50 [4]: < 5.82; pIC50 [5]: < 5.82
COCCN1C(=O)CNc2ncc(-c3ccc4cn[nH]c4c3)nc21 [C-107]	–	–	pIC50 [3]: < 5.82; pIC50 [4]: < 5.82; pIC50 [5]: 6.84
COC1CCC(N2CC(=O)Nc3ncc(-c4ccc(-c5nc[nH]n5)c(F)c4C)nc32)CC1 (stereo not shown) [C-108]	–	–	pIC50 [3]: 7.43; pIC50 [4]: 7.51; pIC50 [5]: 8.30
COCCN1C(=O)CNc2ncc(-c3cccc4[nH]ncc34)nc21 [C-109]	–	–	pIC50 [3]: < 5.82; pIC50 [4]: < 5.82; pIC50 [5]: 6.44
CO[C@H]1CC[C@@H](N2CC(=O)Nc3ncc(-c4ccc(-c5nc[nH]n5)c(F)c4C)nc32)CC1 [C-110]	7.66	< 6.82	–
Cc1c(-c2cnc3c(n2)N(C2CCOCC2)CC(=O)N3)ccc(-c2nc[nH]n2)c1F [C-111]	7.24	< 6.82	–
COCCN1C(=O)CNc2ncc(-c3ccc(-c4cc[nH]n4)cc3)nc21 [C-112]	7.44	< 6.30	–
O=C1CNc2ncc(-c3ccc(O)nc3)nc2N1CCC1CCOCC1 [C-113]	< 6.30	< 6.30	–
CNc1ccc(-c2cnc3c(n2)N(CCC2CCOCC2)C(=O)CN3)cn1 [C-114]	6.74	5.69	–
Nc1cc(-c2cnc3c(n2)N(CCC2CCOCC2)C(=O)CN3)ccn1 [C-115]	< 6.30	< 6.30	–
Nc1ncc(-c2cnc3c(n2)N(CCC2CCOCC2)C(=O)CN3)cn1 [C-116]	6.52	5.40	–
O=C1CNc2ncc(-c3cccc4[nH]ncc34)nc2N1CCC1CCOCC1 [C-117]	< 5.30	< 5.30	–
Cc1cc(C(N)=O)ncc1-c1cnc2c(n1)N(C(C)C)C(=O)CN2 [C-118]	6.77	5.41	–
CCN1CC(=O)Nc2ncc(-c3cc(F)c(-c4nc[nH]n4)cc3C)nc21 [C-119]	8.00	6.49	–
Cc1cc(-c2nc[nH]n2)c(F)cc1-c1cnc2c(n1)N(C(C)C)CC(=O)N2 [C-120]	7.92	7.00	–
Cc1cc(-c2nc[nH]n2)ncc1-c1cnc2c(n1)N(C(C)C)C(=O)CN2 [C-121]	–	7.82	–
Cc1cc(-c2nc[nH]n2)c(F)cc1-c1cnc2c(n1)N(C1CCOCC1)CC(=O)N2 [C-122]	8.22	6.49	–
Cc1cc(-c2nc[nH]n2)c(F)cc1-c1cnc2c(n1)N(C1CCC(O)CC1)CC(=O)N2 (stereo not shown) [C-123]	7.89	< 6.30	–

SMILES	pIC50 [1, 10]	pIC50 [2, 11]	further results
CCN1CC(=O)Nc2ncc(-c3ccc(-c4nc[nH]n4)nc3)nc21 [C-124]	6.54	< 6.30	–
O=C1CN(C2CCOCC2)c2nc(-c3ccc(-c4ncn[nH]4)nc3)cnc2N1 [C-125]	7.14	< 6.30	–
O=C1CNc2ncc(-c3ccnc(O)c3)nc2N1CCC1CCOCC1 [C-126]	6.32	5.94	–
CCN1C(=O)CNc2ncc(-c3cc(F)c(-c4nc[nH]n4)cc3C)nc21 [C-127]	8.40	7.48	–
Cc1cc(-c2nc[nH]n2)c(F)cc1-c1cnc2c(n1)N(C(C)C)C(=O)CN2 [C-128]	7.68	9.00	–
COCCN1C(=O)CNc2ncc(-c3cc(F)c(-c4nc[nH]n4)cc3C)nc21 [C-129]	9.00	< 6.30	–
Cc1cc(-c2nc[nH]n2)c(F)cc1-c1cnc2c(n1)N([C@H]1CC[C@H](O)CC1)C(=O)CN2 [C-130]	> 9.08	7.92	–
COCCN1CC(=O)Nc2ncc(-c3cc(F)c(-c4nc[nH]n4)cc3C)nc21 [C-131]	6.93	< 6.30	–
COC1CCC(N2CC(=O)Nc3ncc(-c4cc(F)c(-c5ncn[nH]5)cc4C)nc32)CC1 (stereo not shown) [C-132]	6.65	< 6.30	–
Cc1cc(-c2nc[nH]n2)c(F)cc1-c1cnc2c(n1)N(C1CCC(O)CC1)CC(=O)N2 (stereo not shown) [C-133]	7.21	< 6.30	–
CC(C)N1CC(=O)Nc2ncc(-c3ccc(-c4nc[nH]n4)nc3)nc21 [C-134]	6.76	< 6.30	–
COCCN1CC(=O)Nc2ncc(-c3ccc(-c4nc[nH]n4)nc3)nc21 [C-135]	< 5.82	< 5.82	–
COC1CCC(N2CC(=O)Nc3ncc(-c4ccc(-c5ncn[nH]5)nc4)nc32)CC1 (stereo not shown) [C-136]	7.09	< 6.30	–
COC1CCC(N2C(=O)CNc3ncc(-c4cc(F)c(-c5ncn[nH]5)cc4C)nc32)CC1 (stereo not shown) [C-137]	7.28	6.40	–
CC(C)N1C(=O)CNc2ncc(-c3ccc(-c4ncn[nH]4)nc3)nc21 [C-138]	7.40	6.74	–
COC1CCC(N2C(=O)CNc3ncc(-c4ccc(-c5ncn[nH]5)nc4)nc32)CC1 (stereo not shown) [C-139]	7.40	< 6.30	–
O=C1CNc2ncc(-c3ccc(-c4nc[nH]n4)nc3)nc2N1CC1CCC(O)CC1 (stereo not shown) [C-141]	7.38	–	–
COC1CCC(CN2CC(=O)Nc3ncc(-c4ccc(-c5ncn[nH]5)nc4)nc32)CC1 (stereo not shown) [C-156]	8.00	–	–
Cc1cc(-c2nc[nH]n2)c(F)cc1-c1cnc2c(n1)N(CC1CCC(O)CC1)CC(=O)N2 (stereo not shown) [C-157]	7.43	–	–
COC1CCC(CN2CC(=O)Nc3ncc(-c4ccc(-c5nc[nH]n5)nc4)nc32)CC1 (stereo not shown) [C-158]	7.44	–	–
CO[C@H]1CC[C@@H](CN2C(=O)CNc3ncc(-c4ccc(-c5nc[nH]n5)nc4)nc32)CC1 [C-165]	–	8.52	–
